Source: patent US9611503B2, “Escherichia coli cell line with thyA knockout and folA knockout” (priority 2011, dated 2017)

Legend:
[1] = tested on: E. coli thyA folA KO + Pv wt; assay: microbe, parasite or virus in culture; format: cell-based; settings: Escherichia coli; host expressing P. vivax wildtype DHFR-TS; 6 hours, OD 600 nm
[2] = tested on: E. coli thyA folA KO + Tg mt; assay: microbe, parasite or virus in culture; format: cell-based; settings: Escherichia coli; host expressing Toxoplasma gondii double mutant DHFR-TS; 6 hours, OD 600 nm
[3] = tested on: E. coli thyA folA KO + Tb wt; assay: microbe, parasite or virus in culture; format: cell-based; settings: Escherichia coli, 6 h
[4] = tested on: E. coli thyA folA KO + Pm wt; assay: microbe, parasite or virus in culture; format: cell-based; settings: Escherichia coli; host expressing P. malariae wildtype DHFR-TS; 6 hours, OD 600 nm
[5] = target: DHFR-TS from Plasmodium malariae (wildtype) (Plasmodium malariae, UniProt A0A1D3JLL1); assay: In vitro biochemical enzyme inhibition assay, purified DHFR-TS; settings: purified P. malariae wildtype DHFR-TS
DHFR-TS from Plasmodium malariae (wildtype), sequence (A0A1D3JLL1 entry or part of it): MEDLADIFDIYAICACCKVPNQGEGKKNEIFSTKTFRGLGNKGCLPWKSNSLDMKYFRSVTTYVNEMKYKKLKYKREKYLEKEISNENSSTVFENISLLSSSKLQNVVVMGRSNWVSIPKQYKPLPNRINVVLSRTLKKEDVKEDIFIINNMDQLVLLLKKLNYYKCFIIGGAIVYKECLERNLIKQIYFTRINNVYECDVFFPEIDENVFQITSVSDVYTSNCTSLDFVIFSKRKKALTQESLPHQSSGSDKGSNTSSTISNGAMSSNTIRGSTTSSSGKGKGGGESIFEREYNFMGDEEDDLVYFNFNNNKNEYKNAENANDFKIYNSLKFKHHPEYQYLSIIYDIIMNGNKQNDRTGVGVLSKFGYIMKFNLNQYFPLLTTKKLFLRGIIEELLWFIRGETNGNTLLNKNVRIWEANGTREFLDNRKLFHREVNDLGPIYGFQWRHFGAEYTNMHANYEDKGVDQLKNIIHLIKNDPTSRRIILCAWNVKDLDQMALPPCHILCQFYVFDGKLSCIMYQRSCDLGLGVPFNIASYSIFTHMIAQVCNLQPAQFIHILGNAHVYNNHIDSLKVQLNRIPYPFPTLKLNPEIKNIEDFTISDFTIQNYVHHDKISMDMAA

[6] = tested on: E. coli thyA folA KO + Pf K1; assay: microbe, parasite or virus in culture; format: cell-based; settings: Escherichia coli; host expressing P. falciparum K1 DHFR-TS; minimal media with ampicillin, 37 degrees Celsius, 6 hours, OD 600 nm
[7] = tested on: E. coli thyA folA KO + Tg wt; assay: microbe, parasite or virus in culture; format: cell-based; settings: Escherichia coli; host expressing Toxoplasma gondii wildtype DHFR-TS; 6 hours, OD 600 nm
[8] = tested on: E. coli thyA folA KO + Pf TM4; assay: microbe, parasite or virus in culture; format: cell-based; settings: Escherichia coli; host expressing P. falciparum TM4 DHFR-TS; minimal media with ampicillin, 37 degrees Celsius, 6 hours, OD 600 nm
[9] = tested on: E. coli thyA folA KO + Pv mt; assay: microbe, parasite or virus in culture; format: cell-based; settings: Escherichia coli; host expressing P. vivax sp21 double mutant DHFR-TS; 6 hours, OD 600 nm
[10] = tested on: E. coli thyA folA KO + Lm wt; assay: microbe, parasite or virus in culture; format: cell-based; settings: Escherichia coli; host expressing Leishmania major DHFR-TS; 6 hours, OD 600 nm

Q: Which IC50 [1] does the source give for CCc1nc(N)nc(N)c1-c1ccc(Cl)cc1 [Pyrimethamine] here?
A: 3.08 ± 0.33 µM

Q: What about the IC50 [2] of the same molecule?
A: > 100 µM

Q: What about the IC50 [3] of the same molecule?
A: > 100 µM

Q: What about the IC50 [4] of the same molecule?
A: 0.77 ± 0.22 µM

Q: And the Ki [5]?
A: 0.00054 ± 6e-05 µM

Q: And the IC50 [6]?
A: 31.93 ± 0.16 µM

Q: What about the IC50 [7] of the same molecule?
A: > 100 µM

Q: What about the IC50 [8] of the same molecule?
A: 0.07 ± 0.01 µM

Q: And the IC50 [9]?
A: > 100 µM

Q: And the IC50 [10]?
A: > 100 µM
